Consider five compounds from US20250320198A1, “SALT OF ENDOTHELIN A (ETA) RECEPTOR ANTAGONIST COMPOUND, AND PREPARATION METHOD THEREFOR AND MEDICAL USE THEREOF” (SHENZHEN SALUBRIS PHARMACEUTICALS CO., LTD, priority 2022, published 2025).

Each structure is given as a SMILES string.

Data set [1] in a line: Research on compound microsome: prototype remaining and transformation to Atrasentan in human liver microsomes (+NADPH). The data set is classed as in vitro ADME. The settings on record: for Prototype remaining quantity (%) Mean: human liver microsome (+NADPH), 37° C. Here is the method: Human liver microsomes were all purchased from Rild Liver Disease Research (Shanghai) Co., Ltd.
Reagents: dimethyl sulfoxide (DMSO), acetonitrile, formic acid, and propranolol (internal standard) are all commercially available.
Instrument: Thermo Fisher Scientific LC-MS (U300 UPLC, TSQ QUANTUMN ULTRA triple quadrupole mass spectrometer).
A certain amount of compound was precisely weighed and dissolved in DMSO to prepare a 10 mM stock solution, and the stock solution was diluted with a diluent (ACN:H2O=1:1) to a 100 μM working solution, and then diluted with a 0.1 M potassium phosphate buffer solution to a 3 μM administration solution for later use. 75 μL of liver microsomes were taken and added into 925 μL of a 0.1 M potassium phosphate buffer solution to be mixed uniformly to obtain a 1.5 mg/mL liver microsome suspension, and the liver microsome suspension was pre-incubated at 37° C. for 10 minutes. Preparation at 0 o'clock: 15 μL of the above liver microsome suspension was taken and added into a 6 mM NADPH solution, 150 μL of a propranolol acetonitrile solution was added immediately for precipitation, and then 15 μL of the above administration solution was added and mixed uniformly for later use. Preparation of samples at 20 minutes and 60 minutes: 15 μL of the administration solution was taken, 15 μL of the liver microsome suspension and 15 μL of the 6 mM NADPH solution were added and mixed uniformly, and a mixture was incubated at 37° C. for 20 minutes and 60 minutes, respectively. The preparation of the above samples was carried out using dual-pore parallel operation. When the above samples are incubated to the relevant time point, 150 μL of the propranolol acetonitrile solution was added to terminate the reaction. All the above samples were centrifuged at 4000 rpm for 5 minutes, and 100 μL of a supernatant was taken, added into 100 μL of ultrapure water and mixed uniformly for LC-MS/MS analysis. LC-MS/MS detection conditions are as follows:
Chromatographic column: Waters ACQUITY™ PREMIER HSS T3, 50*2.1 mm, 1.8 μm.
(§1) Mobile phase: water (0.1% formic acid)—acetonitrile. Perform gradient elution according to the table below.
An initial 0 o'clock was taken as 100%, a relative residual content of the drug at each time point was calculated, and each time point of Atrasentan was taken as 100% to calculate the relative amount of transformation of the compound in the embodiment to Atrasentan.

A short description of data set [2]: Pharmacokinetic study of compound in rats (Embodiment 13), intragastric administration. Format: in vivo. The settings on record: SD rats.
Text: (§2) SD rats: male, 200-300 g, purchased from Beijing Vital River Laboratory Animal Technology Co., Ltd.
(§3) Reagents: dimethyl sulfoxide (DMSO), polyethylene glycol 400 (PEG-400), normal saline, heparin, acetonitrile, formic acid, and propranolol (internal standard) are all commercially available.
(§4) Instrument: Thermo Fisher Scientific LC-MS/MS (U300 UPLC, TSQ QUANTUMN ULTRA triple quadrupole mass spectrometer).
(§5) The compound was weighed and dissolved in a DMSO-PEG-400-normal saline (5:60:35, v/v/v) system. After intragastric administration to rats, 200 μL of venous blood was collected in a sodium-fluoride heparinized EP tube at 15 minutes, 30 minutes, 1 hour, 2 hours, 5 hours, 7 hours, and 24 hours after administration and centrifuged at 12000 rpm for 2 minutes. Plasma was taken and frozen and preserved at −80° C. for testing. A certain amount of samples for test was precisely weighed and dissolved in DMSO to 2 mg/mL as a stock solution. An appropriate amount of compound stock solution was accurately sucked, and diluted by adding acetonitrile to prepare a standard series solution. 20 μL of each of the above standard series solution was accurately sucked, 180 μL of blank plasma was added, and vortex mixing was performed to prepare plasma samples equivalent to plasma concentrations of 1 ng/mL, 3 ng/mL, 5 ng/mL, 10 ng/mL, 30 ng/mL, 100 ng/mL, 300 ng/mL, 1000 ng/mL, and 3000 ng/mL. Dual sample analysis was performed for each concentration to establish a standard curve. 30 μL of plasma was taken, 200 μL of an acetonitrile solution of internal standard propranolol (50 ng/mL) was added, vortex mixing was performed, then 100 μL of purified water was added, vortex mixing was performed again, a mixture was centrifuged at 4000 rpm for 5 minutes, and a supernatant was taken for LC-MS/MS analysis. LC-MS/MS detection conditions are as follows: Chromatographic column: Waters ACQUITY™ PREMIER HSS T3, 50*2.1 mm, 1.8 μm.
as §1
After LC-MS/MS detection of blood drug concentration, WinNonlin 6.1 software was used to calculate pharmacokinetic parameters using a non compartmental model method.

The nature of data set [3]: Pharmacokinetic study of compound in rats (Embodiment 14), intragastric administration. Format: in vivo. Conditions: SD rats.
Text: as §2, §3, §4
as §5, with “Dual sample analysis was performed for each concentration to establish a standard curve. 30 μL of plasma was taken, 200 μL of an acetonitrile solution of internal standard propranolol (50 ng/mL) was added, vortex mixing was performed, then 100 μL of purified water was added, vortex mixing was performed again, a mixture was centrifuged at 4000 rpm for 5 minutes, and a supernatant was taken for LC-MS/MS analysis. LC-MS/MS detection conditions are as follows: Chromatographic column: Waters ACQUITY™ PREMIER HSS T3, 50*2.1 mm, 1.8 μm.” left out

A short description of data set [4]: Study on stability of salts (chemical stability by HPLC). Format: physicochemical. Conditions: for Stability (in words): 25° C./60% RH and 40° C./75% RH.
A short description of data set [5]: Study on hygroscopicity by dynamic vapor sorption (DVS). The data set is classed as physicochemical. The settings on record: for Hygroscopicity (in words): 25° C.; for Vapor sorption: 25° C./80% RH. Here is the method: Hygroscopicity of sulphate, phosphate, hydrochloride, and oxalate was evaluated using a dynamic vapor sorption (DVS). The test collected percentage changes in mass of samples under a constant temperature condition of 25° C. with changes in humidity.

Regarding `CCCCN(CCCC)C(=O)CN1C[C@H](c2ccc3c(c2)OCO3)[C@@H](C(=O)OC(C)OC(=O)OC(C)C)[C@@H]1c1ccc(OC)cc1` (stereo partly drawn) [Compound 3, 1-[(isopropoxycarbonyl)oxy]ethyl-(2R,3R,4S)-4-(benzo[d][1,3]dioxolane-5-yl)-1-[2-(dibutylamino)-2-oxoethyl]-2-(4-methoxyphenyl)pyrrolidine-3-carboxylate], the “Prototype remaining quantity (%) Mean” value in data set [1] (time 0 min (taken as 100%)) is on record as 100.0%; in data set [1] (time 20 min), 0.04%; in data set [1] (time 60 min), 0.06%. Further, in data set [1] (human liver microsomes), the “Conversion into Atrasentan in human microsomes (in words)” value is “fully converted into Atrasentan”. Further, the “Absorption after intragastric administration compared with Atrasentan (in words)” value (“Absorption … compared with Atrasentan (in words)” below) in data set [2] was “better than that of Atrasentan”. In addition, the “Exposure level in rats compared with the same dosage of Atrasentan (in words)” value in data set [2] was “higher than those of the same dosage of Atrasentan”.

Regarding `CCCCN(CCCC)C(=O)CN1C[C@H](c2ccc3c(c2)OCO3)[C@@H](C(=O)OC(C)OC(=O)OC)[C@@H]1c1ccc(OC)cc1` (stereo partly drawn) [Compound 4, 1-[(methoxycarbonyl)oxy]ethyl-(2R,3R,4S)-4-(benzo[d][1,3]dioxolane-5-yl)-1-[2-(dibutylamino)-2-oxoethyl]-2-(4-methoxyphenyl)pyrrolidine-3-carboxylate], the entries for the “Prototype remaining quantity (%) Mean” value in data set [1] (time 0 min (taken as 100%)), in data set [1] (time 20 min) and in data set [1] (time 60 min) were 100.0%, 0% and 0%, respectively. In data set [2], the “Absorption … compared with Atrasentan (in words)” value is reported as “better than that of Atrasentan”. In addition, the “Exposure level in rats compared with the same dosage of Atrasentan (in words)” value in data set [2] is “higher than those of the same dosage of Atrasentan”.

On to `CCCCN(CCCC)C(=O)CN1C[C@H](c2ccc3c(c2)OCO3)[C@@H](C(=O)OC(C)OC(=O)OC2CC2)[C@@H]1c1ccc(OC)cc1` (stereo partly drawn) [Compound 7, 1-[(cyclopropoxycarbonyl)oxy]ethyl-(2R,3R,4S)-4-(benzo[d][1,3]dioxolane-5-yl)-1-[2-(dibutylamino)-2-oxoethyl]-2-(4-methoxyphenyl)pyrrolidine-3-carboxylate], for which the “Prototype remaining quantity (%) Mean” value turned out to be 100.0% in data set [1] (time 0 min (taken as 100%)), 0.10% in data set [1] (time 20 min) and 0.47% in data set [1] (time 60 min). Besides, in data set [3], the “Absorption … compared with Atrasentan (in words)” value was “not as good as that of Atrasentan”. Moreover, the “Exposure level in rats compared with the same dosage of Atrasentan (in words)” value in data set [3] is given as “significantly lower than that of the same dosage of Atrasentan”.

Regarding `CCCCN(CCCC)C(=O)CN1C[C@H](c2ccc3c(c2)OCO3)[C@@H](C(=O)OC(C)OC(=O)OC(C)C)[C@@H]1c1ccc(OC)cc1.O=C(O)C(=O)O` (stereo partly shown) [Oxalate], the “Stability (in words)” value in data set [4] (one week) is given as “good stability”. The “Purity (area %)” value is given as 99.39 area % in data set [4] (25° C./60% RH, one week); 98.52 area % in data set [4] (40° C./75% RH, one week); 99.56 area % in data set [4] (Start). For the same compound, the “Hygroscopicity (in words)” value in data set [5] is given as “lower hygroscopicity”. In data set [5], the Vapor sorption came to 0.96%.

As for `CCCCN(CCCC)C(=O)CN1C[C@H](c2ccc3c(c2)OCO3)[C@@H](C(=O)OC(C)OC(=O)OC(C)C)[C@@H]1c1ccc(OC)cc1` (stereo partly shown) [Phosphate], the “Stability (in words)” value in data set [4] (one week) is “good stability”. The “Purity (area %)” value in data set [4] (25° C./60% RH, one week) is 98.81 area %; in data set [4] (40° C./75% RH, one week), 95.49 area %; in data set [4] (Start) it was 99.29 area %. Also, in data set [5], the “Hygroscopicity (in words)” value is reported as “lower hygroscopicity”. In data set [5], this compound came in with a Vapor sorption of 1.52%.
